Laboratory results taken from patent US9233933B2, “4,4-disubstituted-1,4-dihydropyrimidines and the use thereof as medicaments for the treatment of hepatitis B” (priority 2012, dated 2016).
Like-named read-outs stand apart in the source and are kept apart here.

Tests used:
[1] = Cytotoxicity in HepG2 cells incubated 4 days, Resazurin assay; details: human, HepG2 4 days CC50, HepG2 cells
HBV [2] = experiment: anti HBV activity in HepG2.117 cell line (Tet-off, inducibly HBV producing), intracellular HBV DNA by realtime PCR; assay type: cell-based, Hepatitis B virus; details: read-out: HepG2 117 EC50
HBV [3] = experiment: anti-HBV activity in stable transfected HepG2.2.15 cell line, HBV DNA from secreted virions by realtime PCR; assay type: cell-based, Hepatitis B virus; details: read-out: HBV-HepG2 2.15 EC50
[4] = Cytotoxicity in HepG2 cells using CellTiter-Blue, same incubation period as HepG2.2.15 assay; assay type: cell-based; details: human
Method: Cytotoxicity of the compounds was tested in HepG2 cells using CellTiter-Blue, with the same incubation period and dose range as in the HepG2.2.15 assay.

[5] = Hepatitis B virus, HepG2.117, 72 h, HepG2.117 cells, 3 days of treatment, intracellular HBV DNA
[6] = HepG2.2.15 cells, 6 days of treatment, secreted virion HBV DNA
[7] = HepG2.117 cells, 3 days of treatment, intracellular HBV DNA
[8] = Hepatitis B virus, HepG2.2.15, 144 h, HepG2.2.15 cells, 6 days of treatment, secreted virion HBV DNA
[9] = HepG2 cells, 6 days, CellTiter-Blue, read-out: HepG2 6 days CC50
[10] = Hepatitis B virus, HepG2.117, 72 h
[11] = Hepatitis B virus, HepG2.2.15, 144 h

Structure (SMILES)	CC50 at 4 days [1] [µM]	EC50 (HBV [2]; [5]) [µM]	EC50 (HBV [3]; [8]) [µM]	CC50 at 6 days [4, 9] [µM]	other results
COC(=O)C1=C(C)NC(c2ncccn2)=NC1(C)c1ccc(F)c(F)c1 (single isomer, unassigned) [Compound 159a]	> 25	25	–	–	EC50 (HBV [3]; [6]): 37.5 µM
COC(=O)C1=C(C)NC(c2ncc(F)cc2F)=NC1(c1ccc(F)c(F)c1)C(F)F (single isomer, unassigned) [Compound 151a]	> 25	–	–	–	EC50 (HBV [2]; [7]): > 25 µM; EC50 (HBV [3]; [6]): > 100 µM
COC(=O)C1=C(C)NC(c2ncc(F)cc2C)=NC1(C)c1ccc(F)c(F)c1 (stereo not drawn) [Compound 154]	> 25	17.6	27.5	–	–
COC(=O)C1=C(C)NC(c2ncc(F)cc2F)=NC1(C)c1ccc(F)c(C)c1 (stereo not drawn) [Compound 149]	> 25	3.26	23.8	–	–
N#CC1=C(CN2CCOCC2)NC(c2ccccn2)=NC12CCCc1cc(F)ccc12 (single isomer, unassigned) [Compound 60a]	> 100	–	–	> 100	EC50 (HBV [2]; [7]): > 100 µM; EC50 (HBV [3]; [6]): > 100 µM
COC(=O)C1=C(C)NC(c2ncccc2F)=NC1(C)c1ccc(F)c(F)c1 (racemic) [Compound 158]	> 25	4.56	–	–	–
N#CC1=C(CN2CCOCC2)NC(c2ccccn2)=NC12CCCc1cc(F)ccc12 (racemic) [Compound 60]	> 25	2.5	2.83	> 100	–
COC(=O)C1=C(C)NC(c2ncc(F)cc2F)=NC1(C)c1ccc(F)c(F)c1 (single isomer, unassigned) [Compound 132a]	21.1	> 25	> 100	–	–
COC(=O)C1=C(C)NC(c2ncc(F)cc2F)=NC1(C)c1ccc(F)c(Cl)c1 (stereo not drawn) [Compound 148]	17.2	> 25	–	–	–
CCOC(=O)C1=C(CN2CCOCC2)NC(c2ccccn2)=NC1(C)c1ccc(F)cc1F (stereo not drawn) [Compound 42]	> 50	1.29	3.07	57.7	–
COC(=O)C1=C(C)NC(SC)=NC1(C)c1ccc(F)c(F)c1 (racemic) [Compound 160]	> 25	23.7	0.717	–	–
N#CC1=C(CN2CCOCC2)NC(c2ccccn2)=NC12CCCc1ccccc12 (stereo not drawn) [Compound 61]	–	–	18	> 100	–
CCOC(=O)C1=C(CN2CCOCC2)NC(c2ccccn2)=NC1(C)c1ccc(F)cc1Cl (stereo not drawn) [Compound 41]	> 25	4.5	7.39	> 50	–
COC(=O)C1=C(C)NC(c2nccs2)=NC1(C)c1ccc(F)c(F)c1 (racemic) [Compound 155]	–	14	0.744	–	–
COC(=O)C1=C(CN2CCOCC2)NC(c2ccccn2)=NC1(C)c1ccc(F)cc1 (stereo not drawn) [Compound 2]	> 50	0.25	0.669	> 100	–
C=CC1=C(C(=O)OC)C(C)(c2ccc(F)c(F)c2)N=C(c2ncc(F)cc2F)N1 (stereo not drawn) [Compound 153]	> 25	3.31	12.9	–	–
COC(=O)C1=C(C)NC(c2ccc(F)cn2)=NC1(C)c1ccc(F)c(F)c1 (stereo not drawn) [Compound 133]	> 25	–	–	–	EC50 (HBV [2]; [10]): 4.33 µM; EC50 (HBV [3]; [11]): 17.3 µM
COC(=O)C1=C(CN2CCOCC2)NC(c2ncc(F)cc2F)=NC1(C)c1ccc(F)c(Cl)c1 (stereo not drawn) [Compound 150]	> 25	0.694	1.35	–	–
CCOC(=O)C1=C(CN2CCOCC2)NC(c2ccccn2)=NC1(C)c1ccc(F)c(Cl)c1 (stereo not drawn) [Compound 18]	> 50	1.6	3.92	36.5	–
COC(=O)C1=C(C)NC(c2nccs2)=NC1(C)c1ccc(F)c(F)c1 (single isomer, unassigned) [Compound 155a]	–	17.1	–	–	EC50 (HBV [3]; [6]): 0.983 µM
COC(=O)C1=C(C)NC(c2nccs2)=NC1(C)c1ccc(F)c(F)c1 (single isomer, unassigned) [Compound 155b]	–	–	–	–	EC50 (HBV [2]; [7]): > 25 µM; EC50 (HBV [3]; [6]): > 100 µM
CCOC(=O)C1=C(C)NC(c2ccccn2)=NC1(c1ccc(F)cc1)C(F)(F)F (stereo not drawn) [Compound 35]	–	–	> 100	68.1	–
COC(=O)C1=C(C)NC(c2nccn2C)=NC1(C)c1ccc(F)c(F)c1 (stereo not drawn) [Compound 162]	> 25	> 25	> 25	–	–
COC(=O)C1=C(C)NC(c2ccccn2)=NC1(C)c1cccc(F)c1 (stereo not drawn) [Compound 31]	> 50	–	–	> 100	EC50 (HBV [2]; [10]): 40.6 µM; EC50 (HBV [3]; [11]): 72.4 µM
CCOC(=O)C1=C(CN2CCCCC2)NC(c2ccccn2)=NC1(C)c1ccc(F)cc1 (stereo not drawn) [Compound 9]	–	–	> 100	62.4	–

Structure (SMILES)	CC50 at 4 days [1] [µM]	EC50 (HBV [2]; [5]) [µM]	EC50 (HBV [3]; [8]) [µM]	CC50 at 6 days [4, 9] [µM]	other results
COC(=O)C1=C(C)NC(c2ncc(F)cc2F)=NC1(C)c1ccc(F)c(F)c1 (stereo not drawn) [Compound 132b]	> 25	–	–	–	EC50 (HBV [2]; [10]): 0.474 µM; EC50 (HBV [3]; [11]): 0.784 µM
COC(=O)C1=C(C)NC(c2ncccc2F)=NC1(C)c1ccc(F)c(F)c1 (single isomer, unassigned) [Compound 158a]	> 25	–	–	–	EC50 (HBV [2]; [7]): 2.44 µM
CCOC(=O)C1=C(C#N)NC(c2ccccn2)=NC1(C)c1ccc(F)cc1 (stereo not drawn) [Compound 5]	–	–	> 100	> 100	–
COC(=O)C1=C(C)NC(c2ncc(F)cc2F)=NC1(C)c1ccc(C)c(F)c1 (stereo not drawn) [Compound 157]	> 25	3.06	9.52	–	–
COCC1=C(C(=O)OC)C(C)(c2ccc(F)c(F)c2)N=C(c2ncc(F)cc2F)N1 (stereo not drawn) [Compound 152]	> 25	2.88	3.38	–	–
COC(=O)C1=C(CN2CCOCC2)NC(c2ccccn2)=NC1(C)c1ccccc1Cl (stereo not drawn) [Compound 13]	> 100	3.9	9.34	> 100	–
COC(=O)C1=C(C)NC(c2ncc(F)cc2C)=NC12CCCc1cc(F)ccc12 (stereo not drawn) [Compound 81]	–	–	19.9	–	CC50 at 6 days ([4]; HepG2 6 days CC50): > 50 µM
COC(=O)C1=C(CN2CCOCC2)NC(c2ccccn2)=NC1(C)c1cc(F)cc(Cl)c1 (stereo not drawn) [Compound 29]	> 25	3	6.32	47.4	–
COC(=O)C1=C(C)NC(c2ncc(F)cc2F)=NC1(C)c1ccc(F)c(F)c1 (stereo not drawn) [132b (−)-camphanic acid]	–	–	–	–	EC50 (HBV [3]; [6]): 0.489 µM
N#CC1=C(CN2CCOCC2)NC(c2ccccn2)=NC12CCc1ccccc12 (stereo not drawn) [Compound 76]	> 100	3.65	8.48	> 100	–
CCOC(=O)C1=C(C)NC(c2ccccn2)=NC12CCc1cc(F)ccc12 (stereo not drawn) [Compound 40]	–	–	14	–	CC50 at 6 days ([4]; HepG2 6 days CC50): 77 µM
COC(=O)C1=C(CN2CCOCC2)NC(c2ccccn2)=NC1(C)c1cccc(F)c1 (stereo not drawn) [Compound 30]	> 25	0.29	0.941	> 100	–
COC(=O)C1=C(CN2CCOCC2)NC(c2ncc(F)cc2F)=NC1(C)c1cc(F)cc(Cl)c1 (stereo not drawn) [Compound 27]	> 25	0.63	1.83	> 100	–
COC(=O)C1=C(C2CC2)NC(c2ncc(F)cc2F)=NC1(C)c1ccc(F)c(F)c1 (stereo not drawn) [Compound 142]	> 25	3.37	11.5	–	–
CCOC(=O)C1=C(C)NC(c2ccccn2)=NC1(C)c1ccc(F)c(Cl)c1 (stereo not drawn) [Compound 17]	> 25	21	> 50	39.9	–
CC1(C)CCC2(N=C(c3ccccn3)NC(CN3CCOCC3)=C2C#N)c2ccccc21 (stereo not drawn) [Compound 57]	> 25	> 25	> 100	87.4	–
COC/C=C/C1=C(C(=O)OC)C(C)(c2ccc(F)c(F)c2)N=C(c2ncc(F)cc2F)N1 (stereo not drawn) [Compound 147]	> 25	3.17	2.73	–	–
CCOC(=O)C1=C(C(F)(F)C(F)(F)F)NC(c2ccccn2)=NC1(C)c1ccc(F)cc1 (stereo not drawn) [Compound 11]	–	–	> 100	> 100	–
COC(=O)C1=C(C)NC(c2ncc(F)cc2F)=NC1(C)c1ccc(Cl)c(F)c1 (stereo not drawn) [Compound 156]	> 25	0.669	1.11	–	–
COC(=O)C1=C(C)NC(SC)=NC1(C)c1ccc(F)c(F)c1 (single isomer, unassigned) [Compound 160a]	> 25	–	–	–	EC50 (HBV [2]; [7]): > 25 µM; EC50 (HBV [3]; [6]): > 50 µM
CCOC(=O)C1=C(C)NC(c2ccccn2)=NC1(C)c1ccc(F)cc1 (stereo not drawn) [Compound 6]	–	–	> 25	> 25	–
COC(=O)C1=C(C)NC(c2cnccn2)=NC1(C)c1ccc(F)c(F)c1 (stereo not drawn) [Compound 161]	–	> 25	–	–	–
COC(=O)C1=C(C#N)NC(c2ncc(F)cc2F)=NC1(C)c1ccc(F)c(F)c1 (single isomer, unassigned) [Compound 163a]	> 25	> 25	69.5	–	–
CCOC(=O)C1=C(CN2CCCC2)NC(c2ccccn2)=NC1(C)c1ccc(F)cc1 (stereo not drawn) [Compound 7]	–	–	> 100	13.4	–
CCOC(=O)C1=C(C)NC(c2nccs2)=NC1(C)c1ccc(F)c(Cl)c1 (stereo not drawn) [Compound 21]	–	–	12.7	17.5	–
